In patent US8587857B2, “Electro-wetting display device and non-polar color solution thereof” (Industrial Technology Research Institute, priority 2010, dated 2013):

Assay: solubility of dye in dodecane non-polar solvent, with or without trimethylbenzene (TMB) improvement agent
Format: physicochemical
Method: For example, when a red dye (for example, the C.I. solvent red 164) is dissolved in a dodecane non-polar solvent, a solubility thereof is about 4 wt %.
For another example, when a blue dye (for example, the C.I. solvent blue 98) is dissolved in the dodecane non-polar solvent, a solubility thereof is about 8 wt %.

Question: For C.I. solvent blue 98, which solubility (dye dissolved in dodecane non-polar solvent added with trimethylbenzene (TMB) improvement agent) is on record?
Answer: Its solubility is 21.5 wt %.

Question: And the solubility (dye dissolved in dodecane non-polar solvent, no improvement agent)?
Answer: The solubility was “about 8 wt %”.
